Target: Vps34 (Homo sapiens, UniProt Q8NEB9)
Assay: ELISA assay of Vps34 kinase activity
Assay type: biochemical
Details: Fig. S4

Vps34, sequence (Q8NEB9 whole entry): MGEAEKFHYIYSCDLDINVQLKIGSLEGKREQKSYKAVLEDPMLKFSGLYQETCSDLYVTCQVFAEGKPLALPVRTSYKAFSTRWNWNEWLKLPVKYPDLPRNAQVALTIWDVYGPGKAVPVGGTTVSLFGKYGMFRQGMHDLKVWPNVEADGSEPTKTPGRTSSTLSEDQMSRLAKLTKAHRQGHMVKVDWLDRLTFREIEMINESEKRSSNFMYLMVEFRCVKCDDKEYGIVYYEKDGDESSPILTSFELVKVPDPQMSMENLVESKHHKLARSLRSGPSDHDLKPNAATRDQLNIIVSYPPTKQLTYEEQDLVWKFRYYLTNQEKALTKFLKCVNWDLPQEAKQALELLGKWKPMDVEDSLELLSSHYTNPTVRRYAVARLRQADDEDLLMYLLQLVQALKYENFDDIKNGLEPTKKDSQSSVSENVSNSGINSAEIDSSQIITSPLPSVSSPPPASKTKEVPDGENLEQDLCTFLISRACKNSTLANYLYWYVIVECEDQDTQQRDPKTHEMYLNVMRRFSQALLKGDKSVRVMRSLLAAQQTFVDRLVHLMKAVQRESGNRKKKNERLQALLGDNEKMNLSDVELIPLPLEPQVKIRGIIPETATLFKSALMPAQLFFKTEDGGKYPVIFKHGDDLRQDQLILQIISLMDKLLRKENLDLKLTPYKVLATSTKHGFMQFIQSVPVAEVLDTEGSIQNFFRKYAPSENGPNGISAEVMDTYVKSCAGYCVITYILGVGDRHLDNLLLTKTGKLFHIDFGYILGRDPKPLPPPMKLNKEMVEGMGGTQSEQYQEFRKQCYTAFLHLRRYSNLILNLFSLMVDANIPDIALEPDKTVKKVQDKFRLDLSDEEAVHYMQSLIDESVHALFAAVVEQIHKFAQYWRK

Vps34 inhibition of analogues, SAR (in words): abolishment of activity
SMILES: O=C1/C(=C/C=C/c2ccccc2)Oc2cc(O)ccc21 [1d]

Reference: PMC6543056 (Acta Pharmaceutica Sinica. B, 2019)
